In publication PMC7646200 (Xenobiotica; the fate of foreign compounds in biological …, 2020):
“Also recorded” adds a separate entry of the source. Where two headings read alike, the source gives them in different places.

Experiments:
mouse liver cytosol [1] = test: Sulfonation of 7-hydroxycoumarin derivatives by mouse liver cytosol; settings: for sulfonation rate: 10 μM substrate; for Vmax: mouse liver cytosol, value (95 % confidence interval)
dog liver cytosol [2] = test: Sulfonation of 7-hydroxycoumarin derivatives by dog liver cytosol; settings: for Vmax: value (95 % confidence interval); for intrinsic clearance (Vmax/Km): rank among species; for intrinsic clearance relative to the highest intrinsic clearance value: dog cytosol, highest value = 1 by rat cytosol
[3] = as above; settings: both, Beagle, dog, liver cytosol, pH 7.4
[4] = Sulfonation of 7-hydroxycoumarin derivatives by human liver cytosol; settings: male, human, liver cytosol, pH 7.4
human liver cytosol [5] = test: as above; settings: human liver cytosol; value (95 % confidence interval)
[6] = Sulfonation of 7-hydroxycoumarin derivatives by rat liver cytosol; settings: male, Wistar, rat, pH 7.4
rat liver cytosol [7] = test: as above; settings: rat liver cytosol; for sulfonation efficiency, intrinsic clearance (Vmax/Km): rank among species; for Vmax: value (95 % confidence interval)
[8] = Sulfonation of 7-hydroxycoumarin derivatives by pig liver cytosol; settings: female, pig, liver cytosol, pH 7.4
pig liver cytosol [9] = test: as above; settings: pig liver cytosol; value (95 % confidence interval)
rabbit liver cytosol [10] = test: Sulfonation of 7-hydroxycoumarin derivatives by rabbit liver cytosol; settings: rabbit liver cytosol; for Vmax: value (95 % confidence interval); for sulfonation rate: 10 μM substrate
[11] = as above; settings: female, Dutch belted, rabbit, liver cytosol, pH 7.4
sheep liver cytosol [12] = test: Sulfonation of 7-hydroxycoumarin derivatives by sheep liver cytosol; settings: sheep liver cytosol; for Vmax: value (95 % confidence interval)
[13] = as above; settings: female, sheep, liver cytosol, pH 7.4
mouse liver cytosol [14] = settings: pH 7.4
in vitro = settings: male, Wistar, rat, pH 7.4
dog liver cytosol [15] = settings: for Km: pH 7.4
[16] = Sulfonation of 7-hydroxycoumarin derivatives by mouse liver cytosol; settings: DBA/2N/Kuo, mouse, pH 7.4
[17] = system: liver cytosol of human, rat, mouse, rabbit, dog, pig and sheep; format: in vitro ADME; settings: for sulfonation rate: 10 μM substrate, compared among derivatives over all species
rabbit liver cytosol [18] = settings: pH 7.4
human liver cytosol [19] = settings: pH 7.4
pig liver cytosol [20] = settings: pH 7.4
sheep liver cytosol [21] = settings: pH 7.4
rat liver cytosol [22] = settings: pH 7.4

sulfonation rate (mouse liver cytosol [1]; male mouse liver cytosol) | Km ([6]; liver cytosol) | Km ([16]; liver cytosol) | SMILES | Vmax (mouse liver cytosol [1]) | Vmax (dog liver cytosol [2]; dog liver cytosol) | Km [3] | Km [4] | Vmax (human liver cytosol [5]) | sulfonation efficiency, intrinsic clearance (Vmax/Km) (rat liver cytosol [7]) | Vmax (rat liver cytosol [7]) | Km [8] | Vmax (pig liver cytosol [9]) | Vmax (rabbit liver cytosol [10]) | Km [11] | Vmax (sheep liver cytosol [12]) | Km [13] | Km (mouse liver cytosol [14]) | intrinsic clearance (Vmax/Km) (dog liver cytosol [2]; dog liver cytosol) | sulfonation rate (rabbit liver cytosol [10]) | further results
– | – | – | COc1cc2ccc(=O)oc2cc1O [compound 3, 6-methoxy-7-hydroxycoumarin] | No MM | 420 (390–450) nmol/(min * g protein) | 0.22 µM | 3.5 µM | 155 (6–300) nmol/(min * g protein) | – | 540 (510–570) nmol/(min * g protein) | 0.11 µM | 15 (10–20) nmol/(min * g protein) | 160 (110–220) nmol/(min * g protein) | 0.99 µM | 260 (240–290) nmol/(min * g protein) | 0.13 µM | no MM | – | – | Km (in vitro): 0.65 µM; intrinsic clearance (Vmax/Km) (dog liver cytosol [15]): highest
Slow | – | 0.11 µM | CCc1c(C)c2ccc(O)cc2oc1=O [compound 5, 3-ethyl-4-methyl-7-hydroxycoumarin] | 5.3 (3.8–6.8) nmol/(min * g protein) | 360 (260–460) nmol/(min * g protein) | 0.45 µM | 2.1 µM | 97 (76–120) nmol/(min * g protein) | – | No MM | 1.5 µM | 26 (12–40) nmol/(min * g protein) | 58 (21–95) nmol/(min * g protein) | 1.3 µM | 340 (220–460) nmol/(min * g protein) | 1.6 µM | – | highest | – | –
– | 0.99 µM | 0.14 µM | CCc1c(C)c2ccc(O)c(C)c2oc1=O [compound 6, 3-ethyl-4,8-dimethyl-7-hydroxycoumarin] | 14 (11–17) nmol/(min * g protein) | 630 (280–980) nmol/(min * g protein) | 0.38 µM | 0.51 µM | 99 (74–130) nmol/(min * g protein) | – | 130 (73–180) nmol/(min * g protein) | 1.8 µM | 46 (22–69) nmol/(min * g protein) | 280 (200–350) nmol/(min * g protein) | 1.7 µM | 280 (190–370) nmol/(min * g protein) | 0.48 µM | – | highest | – | intrinsic clearance relative to the highest intrinsic clearance value (dog liver cytosol [2]): > 70%; sulfonation rate (dog liver cytosol [2]; dog liver cytosol, 10 μM substrate): Slow
Slow | 0.8 µM | 0.11 µM | Cc1c(C)c2ccc(O)c(C)c2oc1=O [compound 7, 3,4,8-trimethyl-7-hydroxycoumarin] | 11 (6.8–14) nmol/(min * g protein) | 1300 (0–5200) nmol/(min * g protein) | 4.3 µM | 0.65 µM | 65 (54–76) nmol/(min * g protein) | efficiently | 440 (170–710) nmol/(min * g protein) | 2.1 µM | 59 (28–91) nmol/(min * g protein) | No MM | – | 300 (250–350) nmol/(min * g protein) | 0.71 µM | – | – | – | –
– | – | – | Cc1ccc(-c2cc3ccc(O)cc3oc2=O)cc1 [compound 8, 3-(4-methylphenyl)-7-hydroxycoumarin] | 26 (16–36) nmol/(min * g protein) | 56 (38–77) nmol/(min * g protein) | 0.17 µM | 0.27 µM | 6.5 (1.6–36) nmol/(min * g protein) | efficiently | 170 (92–260) nmol/(min * g protein) | 2.8 µM | 12 (2–22) nmol/(min * g protein) | 310 (35–580) nmol/(min * g protein) | 7.3 µM | 154 (83–230) nmol/(min * g protein) | 5.3 µM | – | – | Slow | sulfonation rate [17]: highest sulfonation rates; Km [6]: 0.36 µM
– | – | – | O=c1oc2cc(O)ccc2cc1-c1ccc(O)cc1 [compound 9, 3-(4-hydroxyphenyl)-7-hydroxycoumarin] | 160 (130–190) nmol/(min * g protein) | 88 (65–120) nmol/(min * g protein) | 0.051 µM | – | – | – | – | – | – | 45 (30–62) nmol/(min * g protein) | 0.95 µM | 41 (26–56) nmol/(min * g protein) | 1.27 µM | – | highest | – | Km [16]: 0.46 µM; intrinsic clearance relative to the highest intrinsic clearance value (dog liver cytosol [2]): > 70%; sulfonation rate (rat liver cytosol [7]; 10 μM substrate): Slow
– | – | – | CN(C)c1ccc(-c2cc3ccc(O)cc3oc2=O)cc1 [compound 12, 3-(4-dimethylaminophenyl)-7-hydroxycoumarin] | 230 (64–540) nmol/(min * g protein) | 600 (330–970) nmol/(min * g protein) | 0.44 µM | 0.39 µM | 180 (75–320) nmol/(min * g protein) | – | 520 (280–790) nmol/(min * g protein) | 2.8 µM | 210 (140–290) nmol/(min * g protein) | 290 (90–560) nmol/(min * g protein) | 0.67 µM | 440 (360–570) nmol/(min * g protein) | 0.89 µM | – | highest | – | sulfonation rate [17]: highest sulfonation rates; intrinsic clearance (Vmax/Km), similarity between species ([17]; compared with other 7-hydroxycoumarin derivatives): more similar between species; Km [16]: 0.49 µM; Km [6]: 0.67 µM
– | – | – | O=c1oc2cc(O)ccc2cc1-c1cccnc1 [compound 13, 3-(4-pyridin-3-yl)-7-hydroxycoumarin] | 160 (110–200) nmol/(min * g protein) | 360 (330–430) nmol/(min * g protein) | – | – | 59 (53–71) nmol/(min * g protein) | efficiently | – | – | 24 (17–31) nmol/(min * g protein) | 120 (100–210) nmol/(min * g protein) | – | 80 (0–230) nmol/(min * g protein) | – | 4.3 µM | – | Slow | Km (rabbit liver cytosol [18]): 10 µM; Km (human liver cytosol [19]): 6.6 3.7–6.8) μM; Km (pig liver cytosol [20]): 4 µM; Km (sheep liver cytosol [21]): 6.8 µM; sulfonation rate (sheep liver cytosol [12]; 10 μM substrate): Slow; Km (rat liver cytosol [22]): 2.3 µM; Km (dog liver cytosol [15]): 3.3 µM
– | – | – | O=c1oc2cc(O)ccc2cc1-n1cncn1 [compound 14, 3-(1H-1,2,4-tirazol-1-yl)-7-hydroxycoumarin] | 78 (69–88) nmol/(min * g protein) | 200 (180–220) nmol/(min * g protein) | – | – | 69 (55–84) nmol/(min * g protein) | efficiently | 230 (200–260) nmol/(min * g protein) | – | 39 (13–65) nmol/(min * g protein) | 32 (25–39) nmol/(min * g protein) | – | 220 (93–350) nmol/(min * g protein) | – | 4.9 µM | – | Slow | Km (rabbit liver cytosol [18]): 2.8 µM; Km (human liver cytosol [19]): 4.7 µM; Km (pig liver cytosol [20]): 3 µM; Km (sheep liver cytosol [21]): 12 µM; Km (rat liver cytosol [22]): 1.3 µM; Km (dog liver cytosol [15]): 3.9 µM

SMILES | sulfonation rate (mouse liver cytosol [1]; male mouse liver cytosol) | Km ([6]; liver cytosol) | Km ([16]; liver cytosol) | Vmax (mouse liver cytosol [1]) | Vmax (dog liver cytosol [2]; dog liver cytosol) | Km [3] | Km [4] | Vmax (human liver cytosol [5]) | sulfonation efficiency, intrinsic clearance (Vmax/Km) (rat liver cytosol [7]) | Vmax (rat liver cytosol [7]) | Km [8] | Vmax (pig liver cytosol [9]) | Vmax (rabbit liver cytosol [10]) | Km [11] | Vmax (sheep liver cytosol [12]) | Km [13] | Km (mouse liver cytosol [14]) | intrinsic clearance (Vmax/Km) (dog liver cytosol [2]; dog liver cytosol) | sulfonation rate (rabbit liver cytosol [10]) | further results
O=c1ccc2ccc(O)cc2o1 [compound 1, 7-hydroxycoumarin, reference compound] | Slow | 0.18 µM | – | 260 (210–320) nmol/(min * g protein) | 380 (330–440) nmol/(min * g protein) | 0.27 µM | 1.9 µM | 84 (26–140) nmol/(min * g protein) | efficiently; also recorded: highest intrinsic clearance | 410 (360–460) nmol/(min * g protein) | 4.3 µM | 65 (29–100) nmol/(min * g protein) | 200 (100–310) nmol/(min * g protein) | 1.7 µM | 250 (200–310) nmol/(min * g protein) | 0.41 µM | – | – | – | sulfonation rate (mouse liver cytosol [1]; female mouse liver cytosol): Slow
